The results in this text go back to patent US6753146B1, “System and method for evaluating agents which prevent oxidative damage” (priority 1999, dated 2004).

The test has as its system human elastin promoter. The test can be described thus: human elastin promoter activity by CAT assay in transgenic mouse fibroblast cultures exposed to hypoxanthine/xanthine oxidase. Type of test: cell-based. Particulars: 10,000 U/ml catalase added just prior to hypoxanthine and xanthine oxidase exposure. The text has this: Fibroblasts derived from the skin of a homozygous line of transgenic mice expressing the 5.2-kb human elastin promoter, linked to a CAT reporter gene which enables measurement of elastin promoter activation, as previously described (Bernstein et al. J Invest Dermatol 105, 269-273, 1995; and Bernstein et al. Photochem Photobiol 64:369-74, 1996) were utilized. Although phenotypically normal, these mice express the human elastin promoter when assayed for CAT activity (Hsu-Wong et al. J. Biol. Chem. 269: 18072-18075, 1994; Bernstein et al. J Invest Dermatol 105, 269-273, 1995; and Bernstein et al. Photochem Photobiol 64:369-74, 1996). […]
DMEM with 10% FCS was removed, cells were rinsed in phosphate buffered saline (PBS), and DMEM was replaced without the addition of FCS. […] The optimum time span for incubation of cells with hypoxanthine/xanthine oxidase was determined by exposing cells to hypoxanthine/xanthine oxidase for 15, 30, 60, 90 and 120 minutes and determining CAT activity as outlined in Example 3. […]
To measure the expression of the human elastin promoter/CAT reporter gene construct in the skin of transgenic mice and in fibroblast cultures established from these animals, CAT activity was determined. […]

With catalase, the “effect on the hypoxanthine/xanthine oxidase-induced increase in elastin promoter activity” value is “fully eliminated this increase”. For the same substance, the “human elastin promoter activity (CAT assay), fold of untreated controls (mean±sem)” value (90 minutes) is on record as 1.0±0.1 fold.
